Experimental data published in ChEMBL document CHEMBL1201862, “PubChem BioAssay data set” (2004).
Activity calls are given as the source filed them.

What was measured:
[1] = Luminescence Cell-Based Dose Response to Identify Activators of 5'UTR Stem-Loop Driven Prion Protein mRNA Translation in H4-C Neuroglioblastoma Cells. [Related pubchem assays: 1829 (Project Summary), 1814 (Primary HTS)]; format: functional
H4 = experiment: Luminescence Cell-Based Dose Response HTS to Identify Activators of 5'UTR Stem-Loop Driven Prion Protein mRNA Translation in H4 Neuroglioblastoma Cells. [Related pubchem assays: 1829 (Project Summary), 1814 (Primary HTS)]; format: functional; details: Homo sapiens
[2] = Luminescence Cell-Based Dose Confirmation to Identify Activators of 5'UTR Stem-Loop Driven Alpha-Synuclein mRNA Translation in H4 Neuroglioblastoma Cells. [Related pubchem assays: 1829 (Project Summary), 1814 (Primary HTS)]; format: functional
[3] = Luminescence Cell-Based Dose Response to Identify Activators of Luciferase Translation or Activity in H4-C Neuroglioblastoma Cells. [Related pubchem assays: 1829 (Project Summary), 1814 (Primary HTS)]; format: functional
[4] = Luminescence Cell-Based Dose Response HTS to Identify Activators of Luciferase Translation or Activity in H4 […] Cells. [Related pubchem assays: 1829 (Project Summary), 1814 (Primary HTS)]; format: functional
[5] = target: T1, Histone-lysine N-methyltransferase NSD2 (Homo sapiens, UniProt O96028); format: biochemical
T1 sequence (O96028 whole entry): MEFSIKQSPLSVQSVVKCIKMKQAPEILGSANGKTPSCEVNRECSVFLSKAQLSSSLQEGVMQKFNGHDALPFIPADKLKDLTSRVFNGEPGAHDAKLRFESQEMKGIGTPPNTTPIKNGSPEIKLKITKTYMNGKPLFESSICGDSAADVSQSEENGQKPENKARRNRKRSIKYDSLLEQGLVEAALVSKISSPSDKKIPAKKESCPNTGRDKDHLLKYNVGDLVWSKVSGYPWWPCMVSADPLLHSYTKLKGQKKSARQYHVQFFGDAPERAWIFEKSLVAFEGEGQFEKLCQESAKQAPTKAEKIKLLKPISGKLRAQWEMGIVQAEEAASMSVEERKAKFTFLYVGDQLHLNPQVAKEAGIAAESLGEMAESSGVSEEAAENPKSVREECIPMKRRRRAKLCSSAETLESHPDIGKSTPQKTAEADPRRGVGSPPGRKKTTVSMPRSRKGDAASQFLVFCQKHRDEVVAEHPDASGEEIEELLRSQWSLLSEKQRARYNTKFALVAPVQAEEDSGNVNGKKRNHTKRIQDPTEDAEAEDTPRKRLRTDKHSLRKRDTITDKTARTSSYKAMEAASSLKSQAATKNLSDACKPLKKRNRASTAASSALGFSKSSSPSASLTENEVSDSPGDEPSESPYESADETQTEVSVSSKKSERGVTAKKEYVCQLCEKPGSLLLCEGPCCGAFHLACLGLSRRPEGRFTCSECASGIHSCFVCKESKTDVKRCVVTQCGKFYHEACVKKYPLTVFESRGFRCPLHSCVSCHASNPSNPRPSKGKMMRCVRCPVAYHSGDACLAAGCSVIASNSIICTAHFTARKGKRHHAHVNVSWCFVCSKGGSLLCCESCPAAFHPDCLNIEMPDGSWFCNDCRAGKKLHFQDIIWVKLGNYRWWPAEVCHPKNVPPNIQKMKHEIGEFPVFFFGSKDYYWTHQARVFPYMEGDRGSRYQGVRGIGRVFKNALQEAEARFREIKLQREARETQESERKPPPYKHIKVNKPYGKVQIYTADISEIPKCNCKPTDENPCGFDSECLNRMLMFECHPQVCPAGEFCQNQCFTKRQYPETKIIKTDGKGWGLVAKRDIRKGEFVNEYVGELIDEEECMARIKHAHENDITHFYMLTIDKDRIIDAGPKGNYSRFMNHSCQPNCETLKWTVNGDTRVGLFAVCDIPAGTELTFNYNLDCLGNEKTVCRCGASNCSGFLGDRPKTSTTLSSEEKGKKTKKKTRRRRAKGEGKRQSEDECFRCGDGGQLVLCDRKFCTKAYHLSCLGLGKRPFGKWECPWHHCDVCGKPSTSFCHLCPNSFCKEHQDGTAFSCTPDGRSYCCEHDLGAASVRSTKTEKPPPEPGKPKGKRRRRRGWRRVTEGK

Fatty acid synthase [6] = target: T2, Fatty acid synthase (Homo sapiens, UniProt P49327); experiment: FAS thioesterase domain inhibitors, dose response, biochemical, kinetic fluorescence intensity (AID 624326); format: functional;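 further: rate of fluorescence rise from hydrolysis of a fluorogenic O-methyl fluorescein ester substrate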
[7] = HepG2 cell cytotoxicity, dose response, cytotoxicity control for Shn3 inhibitor project, CellTiter-Glo, cherry-picked (AID 624134); format: functional, cell-based
[8] = Shn3 3'UTR reporter inhibitors, dose response, cell-based, Clone20 osteoblasts, firefly luciferase, cherry-picked (AID 624132); format: functional;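 further: firefly luciferase luminescence from reporter carrying the Shn3 3'UTR in osteoblasts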
[9] = control 3'UTR Renilla luciferase suppression, dose response, counter-screen for Shn3 inhibitor project, cell-based, Clone20-Shn3RL, cherry-picked (AID 624133); format: functional
Fatty acid synthase [10] = target: T2, Fatty acid synthase; experiment: FAS thioesterase domain inhibitors, dose response, biochemical, endpoint fluorescence intensity, uHTS hits (AID 624327); format: functional;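 further: fluorescence from hydrolysis of an O-methyl fluorescein acyl ester substrate by the enzyme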
Prothrombin = Prothrombin (Bos taurus, UniProt P00735); experiment: thrombin inhibition, dose response, biochemical, fluorescence polarization, uHTS hits (AID 602369); format: functional
[11] = target: 26S proteasome non-ATPase regulatory subunit 14 (Homo sapiens, UniProt O00487); experiment: inhibition of proteasome subunit RPN11 – biochemical, fluorescence polarization, uHTS hits, confirmation (AID 602368); format: functional
[12] = target: 72 kDa type IV collagenase (Homo sapiens, UniProt P08253); experiment: Dose Response validation of uHTS RPN11 inhibitor hits using a MMP-2 Fluorescence assay.; format: functional
[13] = target: T3, Low molecular weight phosphotyrosine protein phosphatase (Homo sapiens, UniProt P24666); format: functional; details: read-out: IC50_Mean;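 further: Dose-response confirmation assay measuring inhibition of LMPTP enzyme activity by fluorescence intensity read-out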
T3 sequence (P24666 whole entry): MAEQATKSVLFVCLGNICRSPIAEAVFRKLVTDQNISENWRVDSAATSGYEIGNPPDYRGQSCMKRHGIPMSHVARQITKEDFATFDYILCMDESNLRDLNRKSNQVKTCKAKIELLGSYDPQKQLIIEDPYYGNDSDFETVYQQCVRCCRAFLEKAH

[14] = cytotoxicity in OVCAR8 ovarian cancer cells, dose response, PAX8 project, cell-based, plate reader, dry powder samples (AID 743197); format: functional; details: OVCAR-8
[15] = NIH:OVCAR-3 ovarian cancer cell cytotoxicity, dose response, PAX8 inhibitor project, plate reader, dry powder samples (AID 743044); format: functional, cell-based
Paired box protein Pax-8 = Paired box protein Pax-8 (Homo sapiens, UniProt Q06710); experiment: inhibitors of PAX8-driven TPO luciferase reporter, dose response, RMG-I cells, cherry-pick (AID 687027); format: functional, cell-based;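 further: luciferase reporter driven by Pax8 target thyroperoxidase promoter measured by SteadyGlo luminescence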
[16] = IGROV1 ovarian cancer cell cytotoxicity, dose response, PAX8 inhibitor project, plate reader, dry powder samples (AID 743043); format: functional, cell-based; details: IGROV-1
HEK293 = experiment: inhibitors of LMP1-driven NF-kB reporter, dose response, cell-based, HEK293, luciferase, cherry-pick (AID 588343); format: functional; details: Homo sapiens
[17] = target: Luciferin 4-monooxygenase (Photinus pyralis, UniProt P08659); experiment: firefly luciferase enzyme inhibitors, dose response, biochemical, luminescence (AID 1891)
[18] = Luminescence Cell-Based Dose Confirmation HTS to Identify Inhibitors of Platelet Dense Granule Release. [Related pubchem assays: 1663 (Primary HTS), 1678 (Summary of Project)]; format: functional
[19] = growth suppression of PTEN-null colon cells, dose response, cell-based, HCT116 PTEN knockout (AID 1047); format: functional;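 further: HCT116 colon tumor cells with PTEN knocked out; cells exposed to compound for 60 hours before readout; potency for loss of cell viability measured by luminescence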
INS1 = experiment: beta cell apoptosis inhibitors, cytokine rescue, dose response, luminescence, retest (AID 449756); format: functional, cell-based; details: Rattus norvegicus;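 further: cell death triggered by IL-1 beta plus TNF-alpha plus IFN-gamma mixture; protective hits raise ATP signal compared with cytokine alone wells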
[20] = growth suppression of beta-catenin-knockout colon cells, dose response, cell-based, HCT116, human colon tumor (AID 1045); format: functional;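 further: HCT116 colon tumor cells with beta catenin knocked out; cells exposed to compound for 60 hours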

T2 sequence (P49327 whole entry, the tested form may be a part): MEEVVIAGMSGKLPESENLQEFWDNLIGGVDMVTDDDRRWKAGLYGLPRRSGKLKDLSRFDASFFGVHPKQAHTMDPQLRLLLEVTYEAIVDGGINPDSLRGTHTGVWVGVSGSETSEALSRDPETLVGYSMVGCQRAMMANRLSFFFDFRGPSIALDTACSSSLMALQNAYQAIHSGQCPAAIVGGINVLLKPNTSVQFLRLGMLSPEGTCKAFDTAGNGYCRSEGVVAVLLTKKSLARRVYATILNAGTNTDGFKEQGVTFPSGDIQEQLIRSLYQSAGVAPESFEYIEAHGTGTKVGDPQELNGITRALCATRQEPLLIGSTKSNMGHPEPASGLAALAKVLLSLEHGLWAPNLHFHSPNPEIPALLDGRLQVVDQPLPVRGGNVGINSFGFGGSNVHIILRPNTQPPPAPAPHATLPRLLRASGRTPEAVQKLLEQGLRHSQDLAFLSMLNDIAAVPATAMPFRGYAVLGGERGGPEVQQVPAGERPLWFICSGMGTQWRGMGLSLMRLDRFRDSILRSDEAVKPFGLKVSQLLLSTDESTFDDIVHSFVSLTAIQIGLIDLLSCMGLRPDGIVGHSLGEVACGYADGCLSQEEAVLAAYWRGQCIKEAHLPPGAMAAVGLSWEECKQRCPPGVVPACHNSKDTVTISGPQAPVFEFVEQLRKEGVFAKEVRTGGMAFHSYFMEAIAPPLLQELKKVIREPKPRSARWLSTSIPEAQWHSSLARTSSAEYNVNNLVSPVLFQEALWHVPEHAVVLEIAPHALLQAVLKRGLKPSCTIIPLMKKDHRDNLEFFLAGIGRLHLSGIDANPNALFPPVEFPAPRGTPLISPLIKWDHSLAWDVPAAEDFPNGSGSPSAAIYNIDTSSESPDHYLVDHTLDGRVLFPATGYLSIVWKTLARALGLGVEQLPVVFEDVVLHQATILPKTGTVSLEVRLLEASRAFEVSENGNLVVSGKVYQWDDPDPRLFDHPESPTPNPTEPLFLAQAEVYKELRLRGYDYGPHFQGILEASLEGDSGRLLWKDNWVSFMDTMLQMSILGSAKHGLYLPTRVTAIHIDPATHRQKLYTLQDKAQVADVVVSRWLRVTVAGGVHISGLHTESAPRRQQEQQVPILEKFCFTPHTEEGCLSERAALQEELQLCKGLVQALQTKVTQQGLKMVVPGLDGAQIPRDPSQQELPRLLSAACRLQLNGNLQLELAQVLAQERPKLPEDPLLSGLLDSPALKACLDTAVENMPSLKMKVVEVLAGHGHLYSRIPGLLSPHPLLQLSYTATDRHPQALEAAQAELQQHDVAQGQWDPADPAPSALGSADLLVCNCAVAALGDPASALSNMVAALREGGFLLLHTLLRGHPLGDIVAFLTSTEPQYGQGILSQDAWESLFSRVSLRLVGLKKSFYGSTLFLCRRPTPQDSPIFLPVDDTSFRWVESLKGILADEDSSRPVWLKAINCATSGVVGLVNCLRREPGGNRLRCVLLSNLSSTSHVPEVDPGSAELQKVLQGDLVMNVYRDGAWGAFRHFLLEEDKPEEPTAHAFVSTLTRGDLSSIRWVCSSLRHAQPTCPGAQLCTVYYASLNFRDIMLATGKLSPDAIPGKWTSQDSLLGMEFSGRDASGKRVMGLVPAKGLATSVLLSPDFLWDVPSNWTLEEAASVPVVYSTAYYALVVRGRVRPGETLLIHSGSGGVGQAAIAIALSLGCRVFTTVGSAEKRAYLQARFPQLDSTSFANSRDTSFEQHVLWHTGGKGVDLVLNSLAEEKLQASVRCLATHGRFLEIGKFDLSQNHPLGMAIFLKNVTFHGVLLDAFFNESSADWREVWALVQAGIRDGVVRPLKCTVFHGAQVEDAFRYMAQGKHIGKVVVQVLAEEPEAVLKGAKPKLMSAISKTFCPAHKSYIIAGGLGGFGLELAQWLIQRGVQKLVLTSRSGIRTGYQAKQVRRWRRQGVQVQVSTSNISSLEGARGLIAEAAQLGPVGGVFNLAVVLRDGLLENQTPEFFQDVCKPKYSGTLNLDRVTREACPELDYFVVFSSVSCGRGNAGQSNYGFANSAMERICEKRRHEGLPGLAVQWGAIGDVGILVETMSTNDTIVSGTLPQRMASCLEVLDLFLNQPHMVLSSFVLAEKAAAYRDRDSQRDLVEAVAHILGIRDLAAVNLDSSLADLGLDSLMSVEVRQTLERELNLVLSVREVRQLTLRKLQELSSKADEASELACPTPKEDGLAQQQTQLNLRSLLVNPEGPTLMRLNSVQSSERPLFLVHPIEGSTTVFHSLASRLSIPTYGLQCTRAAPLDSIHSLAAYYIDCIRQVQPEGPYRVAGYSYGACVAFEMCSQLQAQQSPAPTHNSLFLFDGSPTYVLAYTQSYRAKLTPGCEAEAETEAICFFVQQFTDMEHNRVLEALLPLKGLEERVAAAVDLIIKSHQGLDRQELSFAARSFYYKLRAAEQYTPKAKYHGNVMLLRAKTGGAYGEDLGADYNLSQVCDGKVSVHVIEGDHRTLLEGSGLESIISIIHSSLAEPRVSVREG
Sequence of 72 kDa type IV collagenase (P08253 whole entry): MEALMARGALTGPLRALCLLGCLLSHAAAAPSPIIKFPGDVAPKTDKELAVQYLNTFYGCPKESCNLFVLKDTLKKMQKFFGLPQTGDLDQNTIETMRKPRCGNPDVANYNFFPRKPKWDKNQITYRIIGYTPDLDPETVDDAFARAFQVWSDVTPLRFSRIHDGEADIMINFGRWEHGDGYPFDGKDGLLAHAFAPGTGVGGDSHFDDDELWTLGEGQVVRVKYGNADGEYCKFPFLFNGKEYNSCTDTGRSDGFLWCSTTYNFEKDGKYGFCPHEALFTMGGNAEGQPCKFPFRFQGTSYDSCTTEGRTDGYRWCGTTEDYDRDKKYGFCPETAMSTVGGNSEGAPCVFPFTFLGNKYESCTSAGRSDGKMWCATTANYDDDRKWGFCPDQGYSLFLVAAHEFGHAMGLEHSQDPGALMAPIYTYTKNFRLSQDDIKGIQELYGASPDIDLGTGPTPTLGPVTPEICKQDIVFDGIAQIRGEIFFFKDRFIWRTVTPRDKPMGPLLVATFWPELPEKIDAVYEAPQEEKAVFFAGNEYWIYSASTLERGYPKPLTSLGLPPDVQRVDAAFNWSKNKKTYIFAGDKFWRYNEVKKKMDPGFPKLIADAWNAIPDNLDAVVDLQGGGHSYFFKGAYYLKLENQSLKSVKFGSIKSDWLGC
Sequence of 26S proteasome non-ATPase regulatory subunit 14 (O00487 whole entry): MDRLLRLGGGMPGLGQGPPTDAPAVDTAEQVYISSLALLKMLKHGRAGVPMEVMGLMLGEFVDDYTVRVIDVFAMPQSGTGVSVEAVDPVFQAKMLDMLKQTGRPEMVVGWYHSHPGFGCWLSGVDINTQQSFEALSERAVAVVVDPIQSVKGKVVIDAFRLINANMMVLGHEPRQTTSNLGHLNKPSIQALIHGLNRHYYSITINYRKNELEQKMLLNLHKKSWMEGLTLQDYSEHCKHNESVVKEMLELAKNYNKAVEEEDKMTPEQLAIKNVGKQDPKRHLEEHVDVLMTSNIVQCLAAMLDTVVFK
Sequence of Luciferin 4-monooxygenase (P08659 whole entry): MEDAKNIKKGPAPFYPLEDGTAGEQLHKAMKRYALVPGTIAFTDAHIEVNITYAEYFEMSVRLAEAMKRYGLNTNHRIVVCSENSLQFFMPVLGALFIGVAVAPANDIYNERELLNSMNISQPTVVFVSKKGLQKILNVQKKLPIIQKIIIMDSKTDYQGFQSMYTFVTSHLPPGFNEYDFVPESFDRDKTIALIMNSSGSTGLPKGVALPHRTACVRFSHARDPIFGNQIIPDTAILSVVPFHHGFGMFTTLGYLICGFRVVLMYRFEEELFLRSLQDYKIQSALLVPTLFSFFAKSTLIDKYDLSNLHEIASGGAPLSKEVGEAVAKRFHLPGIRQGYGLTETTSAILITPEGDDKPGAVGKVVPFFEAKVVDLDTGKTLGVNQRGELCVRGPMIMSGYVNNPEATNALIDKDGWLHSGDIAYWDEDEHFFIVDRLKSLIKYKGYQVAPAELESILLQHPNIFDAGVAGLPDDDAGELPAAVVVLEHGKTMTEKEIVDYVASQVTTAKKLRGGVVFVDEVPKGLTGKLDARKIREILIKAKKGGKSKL
Sequence of Paired box protein Pax-8 (Q06710 whole entry): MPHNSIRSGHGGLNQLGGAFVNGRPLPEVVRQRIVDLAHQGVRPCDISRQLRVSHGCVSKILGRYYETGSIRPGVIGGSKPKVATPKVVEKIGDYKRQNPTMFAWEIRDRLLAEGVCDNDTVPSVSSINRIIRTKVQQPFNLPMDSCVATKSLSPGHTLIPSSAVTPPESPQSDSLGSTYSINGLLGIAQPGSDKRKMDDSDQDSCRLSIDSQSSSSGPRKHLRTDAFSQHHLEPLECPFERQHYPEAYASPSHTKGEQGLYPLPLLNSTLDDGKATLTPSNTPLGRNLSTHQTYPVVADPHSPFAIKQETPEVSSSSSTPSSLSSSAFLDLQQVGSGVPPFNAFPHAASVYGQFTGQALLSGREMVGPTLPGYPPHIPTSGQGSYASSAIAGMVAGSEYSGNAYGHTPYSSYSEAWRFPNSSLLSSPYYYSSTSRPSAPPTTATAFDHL

In the case of `Oc1c(C2=CC(C(F)(F)F)=NCCN2)ccc2ccccc12`, the EC50 [1] is reported as 0.364 µM (active), the EC50 (H4) is reported as < 0.1 µM (active) and the EC50 [2] is reported as 0.337 µM (active). For the same molecule, the EC50 [3] was 0.345 µM (active) and the EC50 [4] was < 0.1 µM (inconclusive).
For `CC(=O)NC1=C(N2CC2C)C(=O)C(NC(C)=O)=C(N2CC2C)C1=O` (stereo not given), the AC50 [5] was 10.2 µM (active).
For `Cc1nc2c(OCc3ccc(Cl)cc3Cl)cccn2c1N(C)CC1CC1`, the IC50 (Fatty acid synthase [6]) was 12.9 µM (active), the AC50 [7] was 35.3 µM (active) and the AC50 [8] was 10 µM (active). The AC50 [9] was 19.9 µM (active) and the IC50 (Fatty acid synthase [10]) was 12.7 µM (active).
In the case of `COc1ccc(Cc2c(-c3ccc(C)cc3)nc3ccc(Cl)cn23)c(C)c1`, the IC50 (Prothrombin) is reported as 22.2 µM (active), the IC50 [11] is reported as 27.1 µM (active) and the IC50 [12] is reported as 92.4 µM (active).
With `O=C(N/N=C/C(Cl)=C/c1ccccc1)c1ccc2c(c1)OCO2` the IC50 [13] was 52.9 µM (inactive).
With `COc1cccc2cc(C(=O)Nc3ccc(F)cc3)/c(=N/c3ccc(C(=O)O)cc3)oc12` the IC50 (Prothrombin) was 21.7 µM (active), the IC50 [11] was 48.2 µM (active) and the IC50 [12] was > 100 µM (inactive).
With `O=C(N/N=C/C(Br)=C/c1ccccc1)c1ccc([N+](=O)[O-])cc1` the IC50 [13] was 10.4 µM (active).
In the case of `CC(C)COc1ccc(C(=O)N/C(=C\c2cccc([N+](=O)[O-])c2)C(=O)O)cc1`, the IC50 (Fatty acid synthase [6]) is reported as 9.1 µM (active) and the IC50 (Fatty acid synthase [10]) is reported as 8.63 µM (active).
In the case of `O=C(Nc1cccc(F)c1)N1CCCCN2[C@@H](CO)[C@@H](c3ccc(C#Cc4ccccc4)cc3)[C@@H]2C1`, the AC50 [14] is reported as 21.4 µM (active), the AC50 [15] is reported as 5.97 µM (active) and the AC50 (Paired box protein Pax-8) is reported as 10.1 µM (active). For the same molecule, the AC50 [16] was 13.4 µM (active).
In the case of `COc1ccc(C(=O)/N=c2\nc3ccccn3s2)cc1`, the AC50 (HEK293) is reported as 0.768 µM (active), the EC50 [17] is reported as 1.07 µM (active) and the EC50 [18] is reported as 5.24 µM (active).
In the case of `C/C(=N\Nc1nc(N2CCOCC2)nc(N2CCOCC2)n1)c1ccc([N+](=O)[O-])cc1`, the IC50 (Fatty acid synthase [6]) is reported as 17.9 µM (active) and the IC50 (Fatty acid synthase [10]) is reported as 14.5 µM (active).
In the case of `Cc1cc(Nc2cccc(F)c2)nc(NCc2ccccc2)n1`, the EC50 [19] is reported as 11.1 µM (active), the AC50 (INS1) is reported as 3.9 µM (active) and the EC50 [20] is reported as 10.4 µM (active).
In the case of `COc1ccc(C(=O)C[n+]2ccc3c(c2)nc(-c2ccc(OC)cc2OC)n3C)cc1`, the EC50 [19] is reported as 31.2 µM (active) and the EC50 [20] is reported as 22 µM (active).
